Assay results from ChEMBL document CHEMBL5052820, “Organic compounds” (2019).
Where a SMILES comes first, the peptide text is derived from it.

Assay: Activation of mouse GPR15 stably expressed in CHO cells expressing Aequorin and Galpha16 measured by luminiscence assay
Assay type: cell-based

- EC50: 4.02 µM
Structure (SMILES): CC(C)C[C@H](NC(=O)[C@H](CCC(N)=O)NC(=O)[C@@H]1CCCN1C(=O)[C@H](CCCCN)NC(=O)[C@@H](N)CCC(N)=O)C(=O)N[C@@H](Cc1c[nH]c2ccccc12)C(=O)N[C@H](C(=O)N[C@H](C(=O)N1CCC[C@H]1C(=O)NCC(=O)N[C@@H](C)C(=O)N[C@@H](CC(C)C)C(=O)N1CCC[C@H]1C(=O)N[C@@H](CCC(N)=O)C(=O)N[C@H](C(=O)O)C(C)C)C(C)C)C(C)C (H-QKPQLWVVPGALPQV-OH)
